Values after ≈ are worked out from the molar mass of the structure shown. Like-named read-outs stand apart in the source and are kept apart here.
How the values were obtained:
A. baumannii isolates [1] = assay: Individual antimicrobial susceptibility testing (MIC, broth microdilution, CLSI); type: cell-based, Acinetobacter baumannii; conditions: for MIC50 / MIC90: Acinetobacter baumannii
Method: In the antimicrobial susceptibility testing 77 isolates of A. baumannii (from 2010) in the following sub-groups were tested: • 22 isolates generally susceptible to antimicrobial agents (“Sus”) • 20 carbapenem-resistant isolates (e.g. “MPM-R”) • 20 aminoglycoside-resistant isolates (e.g. “AMK-R”) • 15 colistin-resistant isolates. (e.g. “COL-R”)
Minimum inhibitory concentration (MIC) endpoints were determined by broth microdilution according to CLSI guidelines (CLSI, M7-A8 & M100-S22, 2012). Panels were prepared at IHMA using cation-adjusted Mueller-Hinton broth. Colonies were taken directly from a second-pass culture plate and prepared to a suspension equivalent of the 0.5 McFarland standard using normal saline.
Testing was carried out as described in the General Procedures to determine minimum inhibitory concentration (MIC) end points for compound (I), amikacin, colistin, gentamicin, meropenem and tobramycin, for 77 A. baumannii isolates. Under the “MIC (μg/ml)” heading, the first column (Range) indicates the MIC end points for the particular number (N) of isolates tested, the second column (50%) provides an estimate of the concentration that inhibits 50% (MIC50) of bacterial isolates tested, and the third column (90%) provides an estimate of the concentration that inhibits 90% of the bacterial isolates tested.

A. baumannii isolates [2] = assay: Checkerboard testing (compound (I)/antibacterial agent interaction, FIC index); type: cell-based, Acinetobacter baumannii
Method: Checkerboard interaction studies were performed using 5 isolates from each of the sub-groups and time kill studies were performed using 3 isolates from each sub-group.
Checkerboards (20 isolates, 5 per sub-group) were prepared so as to contain multiple concentrations of compound (I) with different additional antibacterial agents (amikacin, gentamicin, colistin, meropenem and tobramycin) as follows:
Serial two-fold dilutions of the antimicrobial agents alone or in combination in wells of 96 well microtiter plates were inoculated with the appropriate inoculum so that each well contained approximately 4-5×10^4 CFU/ml. Plates were incubated at 35° C. for 16-20 hours. Combination concentrations were tested between 0.25×MIC and 2×MIC. Growth and sterility controls were also included in each plate.
Synergy, indifference and antagonism were calculated based upon the use of the fractional inhibitory concentration (FIC) indices as described by Pillai, Moellering & Eliopoulos (2005) whereby:
Synergism=FIC index of ≦0.5 Indifference=FIC index >1 but ≦4 Additivity >0.5 to 1 Antagonism=FIC index of >4
Checkerboard studies were carried out as described in General Procedures using twenty different A. baumannii isolates with 5 per sub-group of: susceptible, amikacin-resistant, colistin-resistant and meropenem-resistant.

[3] = Amikacin-resistant isolates, N=20
[4] = Colistin-resistant isolates, N=15
[5] = Meropenem-resistant isolates, N=20

## NC[C@H]1O[C@H](O[C@H]2[C@H](O)[C@@H](O[C@H]3O[C@H](CO)[C@@H](O)[C@H](N)[C@H]3O)[C@H](N)C[C@@H]2N)[C@H](N)C[C@@H]1O [tobramycin]
A. baumannii isolates [1]; All isolates, N=77
  MIC50: 2 µg/mL (≈ 4.28 µM)
  MIC90: > 32 µg/mL
A. baumannii isolates [1]; [3]
  MIC50: > 32 µg/mL
  MIC90: > 32 µg/mL
A. baumannii isolates [1]; [4]
  MIC50: 32 µg/mL (≈ 68.4 µM)
  MIC90: > 32 µg/mL
A. baumannii isolates [1]; [5]
  MIC50: 4 µg/mL (≈ 8.56 µM)
  MIC90: > 32 µg/mL
A. baumannii isolates [1]; Susceptible isolates, N=22
  MIC50: 1 µg/mL (≈ 2.14 µM)
  MIC90: 2 µg/mL (≈ 4.28 µM)
  MIC Range: 0.12 to 2 µg/mL
A. baumannii isolates [2]; Acinetobacter baumannii, A. baumannii 441142, colistin-resistant, read-out: MIC
  MIC: > 1020 µg/mL
A. baumannii isolates [2]; Acinetobacter baumannii, A. baumannii 441160, colistin-resistant, read-out: MIC
  MIC: > 1020 µg/mL
A. baumannii isolates [2]; Acinetobacter baumannii, A. baumannii 463996, colistin-resistant, read-out: MIC
  MIC: 2 µg/mL
A. baumannii isolates [2]; Acinetobacter baumannii, A. baumannii 466936, colistin-resistant, read-out: MIC
  MIC: 64 µg/mL
A. baumannii isolates [2]; Acinetobacter baumannii, A. baumannii 517303, colistin-resistant, read-out: MIC
  MIC: 256 µg/mL
A. baumannii isolates [2]; Acinetobacter baumannii, A. baumannii 618649, meropenem-resistant, read-out: MIC
  MIC: 1 µg/mL
A. baumannii isolates [2]; Acinetobacter baumannii, A. baumannii 625917, meropenem-resistant, read-out: MIC
  MIC: 1 µg/mL
A. baumannii isolates [2]; Acinetobacter baumannii, A. baumannii 628760, susceptible, read-out: MIC
  MIC: 2 µg/mL
A. baumannii isolates [2]; Acinetobacter baumannii, A. baumannii 637723, amikacin-resistant, read-out: MIC
  MIC: 2 µg/mL
A. baumannii isolates [2]; Acinetobacter baumannii, A. baumannii 638115, amikacin-resistant, read-out: MIC
  MIC: 2 µg/mL
A. baumannii isolates [2]; Acinetobacter baumannii, A. baumannii 650216, meropenem-resistant, read-out: MIC
  MIC: 1 µg/mL
A. baumannii isolates [2]; Acinetobacter baumannii, A. baumannii 655932, amikacin-resistant, read-out: MIC
  MIC: 2 µg/mL
A. baumannii isolates [2]; Acinetobacter baumannii, A. baumannii 661954, amikacin-resistant, read-out: MIC
  MIC: 1 µg/mL
A. baumannii isolates [2]; Acinetobacter baumannii, A. baumannii 667848, meropenem-resistant, read-out: MIC
  MIC: 1 µg/mL
A. baumannii isolates [2]; Acinetobacter baumannii, A. baumannii 668116, susceptible, read-out: MIC
  MIC: 1 µg/mL
A. baumannii isolates [2]; Acinetobacter baumannii, A. baumannii 668239, amikacin-resistant, read-out: MIC
  MIC: 4 µg/mL
A. baumannii isolates [2]; Acinetobacter baumannii, A. baumannii 670348, susceptible, read-out: MIC
  MIC: 2 µg/mL
A. baumannii isolates [2]; Acinetobacter baumannii, A. baumannii 671050, meropenem-resistant, read-out: MIC
  MIC: 4 µg/mL
A. baumannii isolates [2]; Acinetobacter baumannii, A. baumannii 672190, susceptible, read-out: MIC
  MIC: 1 µg/mL
A. baumannii isolates [2]; Acinetobacter baumannii, A. baumannii 674340, susceptible, read-out: MIC
  MIC: 1 µg/mL

## gentamicin
A. baumannii isolates [1]; All isolates, N=77
  MIC 50%: 32 µg/mL
  MIC 90%: >32 µg/mL
A. baumannii isolates [1]; [3]
  MIC 50%: >32 µg/mL
  MIC 90%: >32 µg/mL
A. baumannii isolates [1]; [4]
  MIC 50%: 32 µg/mL
  MIC 90%: >32 µg/mL
A. baumannii isolates [1]; [5]
  MIC 50%: >32 µg/mL
  MIC 90%: >32 µg/mL
A. baumannii isolates [1]; Susceptible isolates, N=22
  MIC 50%: 1 µg/mL
  MIC 90%: 2 µg/mL
  MIC Range: 0.06 to 2 µg/mL
A. baumannii isolates [2]; A. baumannii 441142, colistin-resistant
  MIC: >1024 µg/mL
A. baumannii isolates [2]; A. baumannii 441160, colistin-resistant
  MIC: >1024 µg/mL
A. baumannii isolates [2]; A. baumannii 463996, colistin-resistant
  MIC: 2 µg/mL
A. baumannii isolates [2]; A. baumannii 466936, colistin-resistant
  MIC: 4 µg/mL
A. baumannii isolates [2]; A. baumannii 517303, colistin-resistant
  MIC: 512 µg/mL
A. baumannii isolates [2]; A. baumannii 618649, meropenem-resistant
  MIC: 0.5 µg/mL
A. baumannii isolates [2]; A. baumannii 625917, meropenem-resistant
  MIC: 1 µg/mL
A. baumannii isolates [2]; A. baumannii 628760, susceptible
  MIC: 1 µg/mL
A. baumannii isolates [2]; A. baumannii 637723, amikacin-resistant
  MIC: 128 µg/mL
A. baumannii isolates [2]; A. baumannii 638115, amikacin-resistant
  MIC: 4 µg/mL
A. baumannii isolates [2]; A. baumannii 650216, meropenem-resistant
  MIC: 64 µg/mL
A. baumannii isolates [2]; A. baumannii 655932, amikacin-resistant
  MIC: 128 µg/mL
A. baumannii isolates [2]; A. baumannii 661954, amikacin-resistant
  MIC: 16 µg/mL
A. baumannii isolates [2]; A. baumannii 667848, meropenem-resistant
  MIC: 256 µg/mL
A. baumannii isolates [2]; A. baumannii 668116, susceptible
  MIC: 0.5 µg/mL
A. baumannii isolates [2]; A. baumannii 668239, amikacin-resistant
  MIC: 1024 µg/mL
A. baumannii isolates [2]; A. baumannii 670348, susceptible
  MIC: 1 µg/mL
A. baumannii isolates [2]; A. baumannii 671050, meropenem-resistant
  MIC: 8 µg/mL
A. baumannii isolates [2]; A. baumannii 672190, susceptible
  MIC: 1 µg/mL
A. baumannii isolates [2]; A. baumannii 674340, susceptible
  MIC: 1 µg/mL
